Assay results: patent US20120100361A1, “ANTISEPTIC COMPOSITION FOR ENGINEERING WOOD PRODUCTION, AND ENGINEERING WOOD” (SDS BIOTECH K.K., priority 2009, published 2012)

What was measured:
fungus cellar soil-bed [1] = test: Fungus cellar soil-bed test of preservative LVL (JIS K1571:2004); settings: 25° C., grade 0 sound condition to 5 out of shape due to the decay
Experimental: (§1) 1000 g of the phenol resin-based glue Deernol D-117 (manufactured by Oshika Corporation), 70 g of wheat flour and 100 g of calcium carbonate were mixed and well kneaded. A solution of each of the compounds of Example 1 and Comparative Example 1, 2 and 5 to 25 was added to the kneaded product so that the final concentrations of the compound in the wood become 150, 100, 50 and 25 g/m^3 and further kneaded. 18 g of the above kneaded product was applied onto each of the surface of glue line of the three Radiata pine veneer sheets having an area of 30 x 30 cm and thickness of 3 mm. After bonding the three sheets to each other, the sheets were subjected to cold pressing at room temperature for 20 minutes and the thermal pressure of 140° C. (10 kgf/cm^2) was applied to the sheets for two minutes to obtain the target LVL. Each of the prepared LVL was processed into the size of 20×20×9 mm to serve as a test sample.
The preservative LVL was prepared in the same manner in Preparation Example 3. Each of the prepared LVL was processed into the size of 9×9×100 mm to serve as a test sample.
(§2) The samples of the plywood and LVL prepared in Preparation Examples 4 and 5 were evaluated by the fungus cellar soil-bed test according to JIS K1571:2004. The weather resistance operation and the test method for the antiseptic effect were performed according to the above test method. The test was carried out for six months setting the test temperature to 25° C. (because the grade average of the decay damage of the non-treated test samples exceeded 2.5 in six months). […] The effect in the glue line treatment was actually investigated with respect to a number of existing antiseptics, and it was confirmed that only epoxyconazole is suitable for the glue line treatment at a low concentration.

fungus cellar soil-bed [2] = test: Fungus cellar soil-bed test of preservative plywood (JIS K1571:2004); settings: plywood, six months, 25° C., grade 0 sound condition to 5 out of shape due to the decay
Experimental: (§3) 1000 g of urea melamine resin (PWP-60, manufactured by Oshika Corporation) was added to 180 g of wheat flour and fully kneaded to thereby obtain a kneaded product. 8 g of ammonium chloride was added as a hardening agent to the kneaded product, and a solution of each of the compounds of Example 1 and Comparative Example 1, 2 and 5 to 25 was further added thereto so that the final concentrations of the compound in the wood become 150, 100, 50 and 25 g/m^3 and kneaded. 18 g of the above kneaded product was applied onto each of the bonding plane of the three red lauan veneer sheets having an area of 30 x 30 cm and thickness of 0.85 mm/2.4 mm/0.85 mm. After bonding the three sheets to each other, the sheets were subjected to cold pressing at room temperature for 20 minutes and the thermal pressure of 120° C. (10 kgf/cm^2) was applied to the sheets for two minutes to obtain the target plywood. Each of the prepared plywood was processed into the size of 20×20×4.1 mm to serve as a test sample.
The preservative plywood was prepared in the same manner in Preparation Example 2. Each of the prepared plywood was processed into the size of 8.9 x 8.9×100 mm to serve as a test sample.
as §2

Fomitopsis palustris [3] = test: Test for antiseptic effects of preservative LVL (JIS K1571:2004); type: cell-based; settings: phenol resin
Experimental: as §1
(§4) The samples of the plywood and LVL prepared in Preparation Examples 2 and 3 were evaluated by the test for antiseptic effects for the drug pressure treatment according to JIS K1571:2004. The weather resistance operation and the test method for the antiseptic effect were performed according to the above test method.

Trametes versicolor [4] = test: as above; type: cell-based; settings: phenol resin
Experimental: as §1, §4

[5] = Test for miscibility with a phenol resin glue; type: physicochemical; parameters: key to Phenol resin status after 60 minutes: ∘: No change; x: Obvious increase in the viscosity was seen and it seems impossible to apply the composition onto the veneer sheet; settings: 10% (w/w) solution added to phenol resin glue Deernol D-117 kneaded product; viscosity change visually observed for 60 minutes
Experimental: The following compounds, which are known to have wood preservative activity, are dissolved in methyl ethylene triglycol to reach a concentration of 10% (w/w) to thereby obtain a solution of each of the compounds.
1000 g of phenol resin-based glue Deernol D-117 (manufactured by Oshika Corporation), 70 g of wheat flour and 100 g of calcium carbonate were mixed and well kneaded. Each of the solutions of Example 1 and Comparative Example 1 to 25 was added to 17 g of the kneaded product and mixed well together. The viscosity change of the glue was visually observed for 60 minutes. […] Although a number of documents listed as the prior art documents and the like teach that quaternary ammonium compounds can be applied to the glue line treatment, it is clear that those compounds have a problem for practical use (Comparative Examples 3 and 4). On the other hand, it was confirmed that the other compounds including that of Example has no problem from the viewpoint of compatibility.

Fomitopsis palustris [6] = test: Test for antiseptic effects of preservative plywood (JIS K1571:2004); type: cell-based; settings: plywood, urea melamine resin, Fomitopsis palustris
Experimental: as §3, §4

Trametes versicolor [7] = test: as above; type: cell-based; settings: plywood, urea melamine resin, Trametes versicolor
Experimental: as §3, §4

[8] = treated amount 25 g/m^3, six months
[9] = treated amount 50 g/m^3, six months
[10] = treated amount 100 g/m^3, six months
[11] = treated amount 150 g/m^3, six months

Row | Structure (SMILES) | Grade average of the decay damage of five test samples (fungus cellar soil-bed [1]; [8]) | Grade average of the decay damage of five test samples (fungus cellar soil-bed [1]; [9]) | Grade average of the decay damage of five test samples (fungus cellar soil-bed [1]; [10]) | Grade average of the decay damage of five test samples (fungus cellar soil-bed [1]; [11]) | Grade average of the decay damage of five test samples (fungus cellar soil-bed [2]; treated amount 25 g/m^3) | Grade average of the decay damage of five test samples (fungus cellar soil-bed [2]; treated amount 50 g/m^3) | Grade average of the decay damage of five test samples (fungus cellar soil-bed [2]; treated amount 100 g/m^3) | Grade average of the decay damage of five test samples (fungus cellar soil-bed [2]; treated amount 150 g/m^3) | average rate of decrease in weight (Fomitopsis palustris [3]; treated amount 25 g/m^3) | average rate of decrease in weight (Fomitopsis palustris [3]; treated amount 50 g/m^3) | average rate of decrease in weight (Fomitopsis palustris [3]; treated amount 100 g/m^3) | average rate of decrease in weight (Fomitopsis palustris [3]; treated amount 150 g/m^3) | average rate of decrease in weight (Trametes versicolor [4]; treated amount 25 g/m^3) | average rate of decrease in weight (Trametes versicolor [4]; treated amount 50 g/m^3) | average rate of decrease in weight (Trametes versicolor [4]; treated amount 100 g/m^3) | average rate of decrease in weight (Trametes versicolor [4]; treated amount 150 g/m^3) | Phenol resin status after 60 minutes [5] | average rate of decrease in weight (Fomitopsis palustris [6]; treated amount 25 g/m^3) | average rate of decrease in weight (Fomitopsis palustris [6]; treated amount 50 g/m^3) | average rate of decrease in weight (Fomitopsis palustris [6]; treated amount 100 g/m^3) | other results
1 | CCCCNC(=O)OCC#CI [Comparative Example 23, 3-iode-2-propynyl-n-butylcarbamate] | 3.0 | 3.4 | 3.2 | 2.6 | 2.8 | 2.8 | 3.2 | 2.8 | X (The average rate of decrease in weight was 3% or more.) | X (The average rate of decrease in weight was 3% or more.) | X (The average rate of decrease in weight was 3% or more.) | X (The average rate of decrease in weight was 3% or more.) | X (The average rate of decrease in weight was 3% or more.) | X (The average rate of decrease in weight was 3% or more.) | X (The average rate of decrease in weight was 3% or more.) | X (The average rate of decrease in weight was 3% or more.) | ∘ | X (The average rate of decrease in weight was 3% or more.) | X (The average rate of decrease in weight was 3% or more.) | X (The average rate of decrease in weight was 3% or more.) | average rate of decrease in weight (Fomitopsis palustris [6]; treated amount 150 g/m^3): X (The average rate of decrease in weight was 3% or more.); average rate of decrease in weight (Trametes versicolor [7]; treated amount 25 g/m^3): X (The average rate of decrease in weight was 3% or more.); average rate of decrease in weight (Trametes versicolor [7]; treated amount 50 g/m^3): X (The average rate of decrease in weight was 3% or more.); average rate of decrease in weight (Trametes versicolor [7]; treated amount 100 g/m^3): X (The average rate of decrease in weight was 3% or more.); average rate of decrease in weight (Trametes versicolor [7]; treated amount 150 g/m^3): X (The average rate of decrease in weight was 3% or more.)
2 | CO/C=C(/C(=O)OC)c1ccccc1Oc1cc(Oc2ccccc2C#N)ncn1 [Comparative Example 21, azoxystrobin] | 3.0 | 3.6 | 3.4 | 2.8 | 3.0 | 3.0 | 3.0 | 2.8 | X (The average rate of decrease in weight was 3% or more.) | X (The average rate of decrease in weight was 3% or more.) | X (The average rate of decrease in weight was 3% or more.) | X (The average rate of decrease in weight was 3% or more.) | X (The average rate of decrease in weight was 3% or more.) | X (The average rate of decrease in weight was 3% or more.) | X (The average rate of decrease in weight was 3% or more.) | X (The average rate of decrease in weight was 3% or more.) | ∘ | X (The average rate of decrease in weight was 3% or more.) | X (The average rate of decrease in weight was 3% or more.) | X (The average rate of decrease in weight was 3% or more.) | average rate of decrease in weight (Fomitopsis palustris [6]; treated amount 150 g/m^3): X (The average rate of decrease in weight was 3% or more.); average rate of decrease in weight (Trametes versicolor [7]; treated amount 25 g/m^3): X (The average rate of decrease in weight was 3% or more.); average rate of decrease in weight (Trametes versicolor [7]; treated amount 50 g/m^3): X (The average rate of decrease in weight was 3% or more.); average rate of decrease in weight (Trametes versicolor [7]; treated amount 100 g/m^3): X (The average rate of decrease in weight was 3% or more.); average rate of decrease in weight (Trametes versicolor [7]; treated amount 150 g/m^3): X (The average rate of decrease in weight was 3% or more.)
